Numbers after ± are expanded uncertainties.
Test: xn = mol fraction of the nth substance listed
Conditions: 101.33 kPa, Liquid

C[S+](C)[O-] [dimethyl sulfoxide] + Cc1ccccc1
Conditions	mass density [kg/m3]
293.15 K, x2 = 0.0689	1077.87 ± 0.33
293.15 K, x2 = 0.1505	1053.27 ± 0.36
293.15 K, x2 = 0.2269	1031.56 ± 0.4
293.15 K, x2 = 0.3036	1010.99 ± 0.44
293.15 K, x2 = 0.3758	992.64 ± 0.49
293.15 K, x2 = 0.4568	973.24 ± 0.56
293.15 K, x2 = 0.5177	959.33 ± 0.6
293.15 K, x2 = 0.5769	946.41 ± 0.65
293.15 K, x2 = 0.6342	934.37 ± 0.69
293.15 K, x2 = 0.6885	923.31 ± 0.73
293.15 K, x2 = 0.7512	911.04 ± 0.78
293.15 K, x2 = 0.8181	898.38 ± 0.82
293.15 K, x2 = 0.8856	886.05 ± 0.87
293.15 K, x2 = 0.9553	873.71 ± 0.92
303.15 K, x2 = 0.0652	1069.85 ± 0.32
303.15 K, x2 = 0.1295	1050.38 ± 0.34
303.15 K, x2 = 0.1806	1035.51 ± 0.36
303.15 K, x2 = 0.2563	1014.57 ± 0.4
303.15 K, x2 = 0.3098	1000.5 ± 0.44
303.15 K, x2 = 0.3845	981.74 ± 0.5
303.15 K, x2 = 0.4456	967.18 ± 0.55
303.15 K, x2 = 0.5169	950.98 ± 0.6
303.15 K, x2 = 0.5813	937.04 ± 0.65
303.15 K, x2 = 0.6645	919.88 ± 0.71
303.15 K, x2 = 0.7499	903.18 ± 0.77
303.15 K, x2 = 0.8114	891.64 ± 0.82
303.15 K, x2 = 0.8802	879.15 ± 0.86
303.15 K, x2 = 0.9532	866.39 ± 0.91
313.15 K, x2 = 0.0661	1059.41 ± 0.31
313.15 K, x2 = 0.1202	1043.16 ± 0.33
313.15 K, x2 = 0.1891	1023.36 ± 0.36
313.15 K, x2 = 0.2403	1009.32 ± 0.39
313.15 K, x2 = 0.2945	995.06 ± 0.42
313.15 K, x2 = 0.3615	978.24 ± 0.48
313.15 K, x2 = 0.4369	960.28 ± 0.54
313.15 K, x2 = 0.5156	942.59 ± 0.6
313.15 K, x2 = 0.5813	928.56 ± 0.65
313.15 K, x2 = 0.6558	913.41 ± 0.71
313.15 K, x2 = 0.7267	899.63 ± 0.76
313.15 K, x2 = 0.7956	886.78 ± 0.8
313.15 K, x2 = 0.8821	871.32 ± 0.86
313.15 K, x2 = 0.9448	860.52 ± 0.9
323.15 K, x2 = 0.0884	1042.41 ± 0.3
323.15 K, x2 = 0.1236	1032.08 ± 0.32
323.15 K, x2 = 0.1869	1014.1 ± 0.35
323.15 K, x2 = 0.2536	996.08 ± 0.39
323.15 K, x2 = 0.3285	976.94 ± 0.45
323.15 K, x2 = 0.3996	959.75 ± 0.51
323.15 K, x2 = 0.4501	948.11 ± 0.55
323.15 K, x2 = 0.4969	937.7 ± 0.59
323.15 K, x2 = 0.5563	925 ± 0.63
323.15 K, x2 = 0.616	912.74 ± 0.68
323.15 K, x2 = 0.6725	901.61 ± 0.72
323.15 K, x2 = 0.7562	885.79 ± 0.78
323.15 K, x2 = 0.8532	868.42 ± 0.84
323.15 K, x2 = 0.9458	852.63 ± 0.9
333.15 K, x2 = 0.0598	1040.93 ± 0.28
333.15 K, x2 = 0.1436	1016.4 ± 0.32
333.15 K, x2 = 0.2258	993.84 ± 0.37
333.15 K, x2 = 0.2931	976.44 ± 0.42
333.15 K, x2 = 0.3652	958.78 ± 0.48
333.15 K, x2 = 0.4112	948.06 ± 0.52
333.15 K, x2 = 0.4859	931.36 ± 0.58
333.15 K, x2 = 0.5301	921.94 ± 0.61
333.15 K, x2 = 0.5965	908.31 ± 0.66
333.15 K, x2 = 0.6789	892.24 ± 0.72
333.15 K, x2 = 0.7215	884.23 ± 0.75
333.15 K, x2 = 0.7899	871.86 ± 0.8
333.15 K, x2 = 0.8512	861.15 ± 0.84
333.15 K, x2 = 0.9503	844.53 ± 0.9
343.15 K, x2 = 0.0599	1030.68 ± 0.27
343.15 K, x2 = 0.1102	1015.93 ± 0.29
343.15 K, x2 = 0.1798	996.46 ± 0.33
343.15 K, x2 = 0.2549	976.61 ± 0.4
343.15 K, x2 = 0.3169	961.13 ± 0.45
343.15 K, x2 = 0.3858	944.75 ± 0.5
343.15 K, x2 = 0.4405	932.38 ± 0.55
343.15 K, x2 = 0.5258	914.08 ± 0.61
343.15 K, x2 = 0.5936	900.34 ± 0.66
343.15 K, x2 = 0.6678	886.01 ± 0.71
343.15 K, x2 = 0.7166	876.96 ± 0.75
343.15 K, x2 = 0.7925	863.42 ± 0.8
343.15 K, x2 = 0.8792	848.65 ± 0.86
343.15 K, x2 = 0.9552	836.24 ± 0.9
353.15 K, x2 = 0.0801	1014.55 ± 0.27
353.15 K, x2 = 0.1526	994.06 ± 0.31
353.15 K, x2 = 0.2215	975.63 ± 0.37
353.15 K, x2 = 0.2869	959.04 ± 0.43
353.15 K, x2 = 0.3568	942.26 ± 0.48
353.15 K, x2 = 0.4205	927.79 ± 0.53
353.15 K, x2 = 0.4956	911.6 ± 0.59
353.15 K, x2 = 0.5723	895.96 ± 0.65
353.15 K, x2 = 0.6321	884.4 ± 0.69
353.15 K, x2 = 0.7058	870.71 ± 0.74
353.15 K, x2 = 0.768	859.69 ± 0.78
353.15 K, x2 = 0.8363	848.04 ± 0.83
353.15 K, x2 = 0.8913	838.96 ± 0.86
353.15 K, x2 = 0.9524	829.17 ± 0.9

— the NIST ThermoML archive (doi:10.1016/j.jct.2004.07.024)
